Test results taken from patent US20260015662A1, “DETECTING ANTIBIOTIC AND/OR CHEMICAL USE IN ANIMALS USING EPIGENETIC MEANS” (Evonik Operations GmbH, priority 2022, published 2026).
Where a name gives a salt, the structure may show the parent alone.

Assays:
[1] = test system: IPEC2 cells (swine intestinal cell line IPEC2-J2); assay: Methylated DNA quantification in swine intestinal cell line treated with antibiotics; type: cell-based; conditions: for average amount of methylated DNA: Tet 200 mg/L, Amx 100 mg/L, Col 480 mg/L, ± SEM; for size of the reduction in overall DNA methylation (rank among the three antibiotics): within 24 hrs of treatment, compared with antibiotic free control cells
Protocol: An in vitro to investigate the effects of three different antibiotics on the DNA methylation quantity in a swine intestinal cell line.
An immortalised cell line from swine intestines (IPEC2-J2 ACC 701 from DSMZ cell culture) was utilized in the 7th passage. In a 12 well, flat-bottom plate, 1×10^4 cel|s/well were seeded with DPBS D8537 (Sigma-Aldrich) and initially incubated for 4 days. After incubation cells were treated with one of 4 treatments for up to an additional 4 days: • 1) Incubation for 4 days without any antibiotics • 2) Incubation for 1 day with antibiotics followed by incubation for 1-3 days in antibiotic free media • 3) Incubation for 2 days with antibiotics followed by incubation for 1-2 days in antibiotic free media • 4) Incubation for 3 days with antibiotics followed by incubation for 1 day in antibiotic free media
Treatments 2, 3 and 4 were repeated with 3 different antibiotic treatments; tetracycline hydrochloride at 200 mg/L, Amoxicillin at 100 mg/L and Colistin at 480 mg/L. Duplicate cells per treatment were harvested at each time point. Media was removed, cells were washed once with DPBS, and a cell scraper was used to disassociate the cells from the bottom of the well. Cell pellets were then stored at −80° C. until DNA could be isolated using the NuceloSpin® DNA Stool Kit (Macherey and Nagel). Methylation grade of 100ng of isolated DNA was determined using the Imprint® Methylated DNA Quantification Kit (Sigma-Aldrich) which compared samples to a standard curve of known methylated DNA.

[2] = cited from earlier work; for Absorption: absorption level of the antibiotic
[3] = 1 day with antibiotic before washing, harvested Day 1
[4] = 1 day with antibiotic before washing, harvested Day 2
[5] = 1 day with antibiotic before washing, harvested Day 3
[6] = 1 day with antibiotic before washing, harvested Day 4
[7] = 2 days with antibiotic before washing, harvested Day 2
[8] = 2 days with antibiotic before washing, harvested Day 3
[9] = 2 days with antibiotic before washing, harvested Day 4
[10] = 3 days with antibiotic before washing, harvested Day 3
[11] = 3 days with antibiotic before washing, harvested Day 4

| Molecule | average amount of methylated DNA [1, 3] | average amount of methylated DNA [1, 4] | average amount of methylated DNA [1, 5] | average amount of methylated DNA [1, 6] | average amount of methylated DNA [1, 7] | average amount of methylated DNA [1, 8] | average amount of methylated DNA [1, 9] | average amount of methylated DNA [1, 10] | average amount of methylated DNA [1, 11] | size of the reduction in overall DNA methylation (rank among the three antibiotics) [1] | Absorption [2] | Recommended Withdrawal for Broilers [2] |
| --- | --- | --- | --- | --- | --- | --- | --- | --- | --- | --- | --- | --- |
| Colistin | 26.1 ± 5.0 ng/100 ng isolated DNA | 11.7 ± 6.8 ng/100 ng isolated DNA | 19.6 ± 5.5 ng/100 ng isolated DNA | 24.9 ± 0.8 ng/100 ng isolated DNA | 29.5 ± 3.8 ng/100 ng isolated DNA | 1.4 ± 7.9 ng/100 ng isolated DNA | 19.0 ± 5.4 ng/100 ng isolated DNA | 29.1 ± 18.0 ng/100 ng isolated DNA | 28.5 ± 16.4 ng/100 ng isolated DNA | finally |  |  |
| CN(C)[C@@H]1C(O)=C(C(N)=O)C(=O)[C@@]2(O)C(O)=C3C(=O)c4c(O)cccc4[C@@](C)(O)[C@H]3C[C@@H]12 [Tet, tetracycline hydrochloride] | −5.6 ± 2.9 ng/100 ng isolated DNA | 12.0 ± 6.9 ng/100 ng isolated DNA | 18.2 ± 16.0 ng/100 ng isolated DNA | 25.8 ± 22.4 ng/100 ng isolated DNA | 0.1 ± 8.1 ng/100 ng isolated DNA | −8.6 ± 11.1 ng/100 ng isolated DNA | 7.4 ± 9.7 ng/100 ng isolated DNA | 6.0 ± 13.2 ng/100 ng isolated DNA | 21.7^3 ng/100 ng isolated DNA | largest |  |  |
| CC[C@H]1OC(=O)C[C@@H](O)[C@H](C)[C@@H](O[C@@H]2O[C@H](C)[C@@H](O[C@H]3C[C@@](C)(O)[C@@H](O)[C@H](C)O3)[C@H](N(C)C)[C@H]2O)[C@@H](CC=O)C[C@@H](C)C(=O)/C=C/C(C)=C/[C@@H]1CO[C@@H]1O[C@H](C)[C@@H](O)[C@@H](OC)[C@H]1OC [Tylosin] |  |  |  |  |  |  |  |  |  |  | Systemic | 5 days |
| CC1(C)S[C@@H]2[C@H](NC(=O)[C@H](N)c3ccc(O)cc3)C(=O)N2[C@H]1C(=O)O [Amoxicillin] | 4.1 ± 8.9 ng/100 ng isolated DNA | 12.3 ± 3.2 ng/100 ng isolated DNA | 20.4 ± 8.3 ng/100 ng isolated DNA | 19.0 ± 2.1 ng/100 ng isolated DNA | 20.9 ± 10.4 ng/100 ng isolated DNA | 9.8 ± 4.7 ng/100 ng isolated DNA | 21.3 ± 3.4 ng/100 ng isolated DNA | 26.0 ± 10.2 ng/100 ng isolated DNA | 10.2 ± 9.4 ng/100 ng isolated DNA |  | Systemic | 1 to 4 days |
| Bacitracin Methylene Disalicylate [BMD] |  |  |  |  |  |  |  |  |  |  | Local | None required |
